Data as given in patent US10167262B2, “Herbicidal substituted 3-arylpyrazoles” (FMC CORPORATION, priority 2014, dated 2019).

Legend:
Type in all cases: in vivo
[1] = test system: barnyardgrass (Echinochloa crus-galli); assay: Test A pre-/postemergence greenhouse herbicide test, visual injury rating 0-100
How it was run: (§1)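 Visual injury versus untreated controls, scored about 10 days after treatment on a 0 to 100 scale (0 = no effect, 100 = complete control). Applications were preemergence directed soil spray plus postemergence spray at one- to two-leaf stage, 2 to 10 cm plants.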

[2] = test system: corn (Zea mays); assay: as above
How it was run: as §1

[3] = test system: giant foxtail (Setaria faberii); assay: as above
How it was run: as §1

[4] = test system: large (Lg) crabgrass (Digitaria sanguinalis); assay: as above
How it was run: as §1

[5] = test system: morningglory (Ipomoea spp.); assay: as above
How it was run: as §1

[6] = test system: pigweed (Amaranthus retroflexus); assay: as above
How it was run: as §1

[7] = test system: velvetleaf (Abutilon theophrasti); assay: as above
How it was run: as §1

[8] = test system: wheat (Triticum aestivum); assay: as above
How it was run: as §1

[9] = test system: johnsongrass (Sorghum halepense); assay: Test C pre-/postemergence greenhouse test, plant response rating 0-100; settings: Postemergence; for Plant response rating, Johnsongrass: 250 g ai/ha, scale 0 to 100
How it was run: (§2)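 Two application timings: preemergence onto seeded loam/sand soil and postemergence onto plants at the 1–4 leaf stage (2–18 cm) in peat/vermiculite medium. Formulation: non-phytotoxic solvent with surfactant. Read-out: visual control rating, 0–100, at 13–15 days after treatment.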

[10] = test system: lambsquarters (Chenopodium album); assay: as above; settings: Postemergence; for Plant response rating, Lambsquarters: 250 g ai/ha, scale 0 to 100
How it was run: as §2

[11] = test system: morningglory (Ipomoea coccinea); assay: as above; settings: Postemergence; for Plant response rating, Morningglory: 250 g ai/ha, scale 0 to 100
How it was run: as §2

[12] = test system: velvetleaf (Abutilon theophrasti); assay: as above; settings: Postemergence; for Plant response rating, Velvetleaf: 250 g ai/ha, scale 0 to 100
How it was run: as §2

SMILES: CC(C)n1cc(C(=O)c2ccccc2)c(-c2cc(Cl)cc(Cl)c2)n1 [Compound 44]
- Plant response rating (0 to 100 scale), Barnyardgrass ([1]; Postemergence, 125 g ai/ha): 0
- Plant response rating (0 to 100 scale), Barnyardgrass ([1]; Postemergence, 500 g ai/ha): 0
- Barnyardgrass plant response rating (0 = no effect, 100 = complete control) ([1]; Preemergence, 125 g ai/ha): 0
- Plant response rating (0 to 100 scale), Barnyardgrass ([1]; Preemergence, 500 g ai/ha): 0
- Plant response rating (0 to 100 scale), Corn ([2]; Postemergence, 125 g ai/ha): 0
- Plant response rating (0 to 100 scale), Corn ([2]; Postemergence, 500 g ai/ha): 0
- Corn plant response rating (0 = no effect, 100 = complete control) ([2]; Preemergence, 125 g ai/ha): 0
- Plant response rating (0 to 100 scale), Corn ([2]; Preemergence, 500 g ai/ha): 0
- Plant response rating (0 to 100 scale), Foxtail, Giant ([3]; Postemergence, 125 g ai/ha): 0
- Plant response rating (0 to 100 scale), Foxtail, Giant ([3]; Postemergence, 500 g ai/ha): 0
- Foxtail, Giant plant response rating (0 = no effect, 100 = complete control) ([3]; Preemergence, 125 g ai/ha): 0
- Plant response rating (0 to 100 scale), Foxtail, Giant ([3]; Preemergence, 500 g ai/ha): 0
- Plant response rating (0 to 100 scale), Crabgrass, Large ([4]; Postemergence, 125 g ai/ha): 0
- Plant response rating (0 to 100 scale), Crabgrass, Large ([4]; Postemergence, 500 g ai/ha): 0
- Crabgrass, Large plant response rating (0 = no effect, 100 = complete control) ([4]; Preemergence, 125 g ai/ha): 0
- Plant response rating (0 to 100 scale), Crabgrass, Large ([4]; Preemergence, 500 g ai/ha): 0
- Morningglory plant response rating (0 = no effect, 100 = complete control) ([5]; Preemergence, 125 g ai/ha): 0
- Plant response rating (0 to 100 scale), Morningglory ([5]; Preemergence, 500 g ai/ha): 0
- Plant response rating (0 to 100 scale), Pigweed ([6]; Postemergence, 125 g ai/ha): 80
- Plant response rating (0 to 100 scale), Pigweed ([6]; Postemergence, 500 g ai/ha): 100
- Pigweed plant response rating (0 = no effect, 100 = complete control) ([6]; Preemergence, 125 g ai/ha): 0
- Plant response rating (0 to 100 scale), Pigweed ([6]; Preemergence, 500 g ai/ha): 70
- Plant response rating (0 to 100 scale), Velvetleaf ([7]; Postemergence, 125 g ai/ha): 90
- Plant response rating (0 to 100 scale), Velvetleaf ([7]; Postemergence, 500 g ai/ha): 90
- Velvetleaf plant response rating (0 = no effect, 100 = complete control) ([7]; Preemergence, 125 g ai/ha): 20
- Plant response rating (0 to 100 scale), Velvetleaf ([7]; Preemergence, 500 g ai/ha): 40
- Plant response rating (0 to 100 scale), Wheat ([8]; Postemergence, 125 g ai/ha): 0
- Plant response rating (0 to 100 scale), Wheat ([8]; Postemergence, 500 g ai/ha): 0
- Wheat plant response rating (0 = no effect, 100 = complete control) ([8]; Preemergence, 125 g ai/ha): 0
- Plant response rating (0 to 100 scale), Wheat ([8]; Preemergence, 500 g ai/ha): 0
- Plant response rating (0 to 100), Johnsongrass ([9]; 62 g ai/ha): 0
- Plant response rating (0 to 100), Johnsongrass ([9]; 125 g ai/ha): 0
- Plant response rating, Johnsongrass [9]: 0
- Plant response rating (0 to 100), Lambsquarters ([10]; 62 g ai/ha): 45
- Plant response rating (0 to 100), Lambsquarters ([10]; 125 g ai/ha): 45
- Plant response rating, Lambsquarters [10]: 55
- Plant response rating (0 to 100), Morningglory ([11]; 62 g ai/ha): 0
- Plant response rating (0 to 100), Morningglory ([11]; 125 g ai/ha): 5
- Plant response rating, Morningglory [11]: 5
- Plant response rating (0 to 100), Velvetleaf ([12]; 62 g ai/ha): 60
- Plant response rating (0 to 100), Velvetleaf ([12]; 125 g ai/ha): 75
- Plant response rating, Velvetleaf [12]: 80

SMILES: Cn1cc(C(=NN2CCCC2)c2ccccc2)c(-c2cc(Cl)c(Cl)c(Cl)c2)n1 [Compound 25]
- Plant response rating (0 to 100 scale), Barnyardgrass ([1]; Postemergence, 1000 g ai/ha): 0
- Plant response rating (0 to 100 scale), Barnyardgrass ([1]; Preemergence, 1000 g ai/ha): 0
- Plant response rating (0 to 100 scale), Corn ([2]; Postemergence, 1000 g ai/ha): 0
- Plant response rating (0 to 100 scale), Corn ([2]; Preemergence, 1000 g ai/ha): 0
- Plant response rating (0 to 100 scale), Foxtail, Giant ([3]; Postemergence, 1000 g ai/ha): 0
- Plant response rating (0 to 100 scale), Foxtail, Giant ([3]; Preemergence, 1000 g ai/ha): 0
- Plant response rating (0 to 100 scale), Crabgrass, Large ([4]; Postemergence, 1000 g ai/ha): 0
- Plant response rating (0 to 100 scale), Crabgrass, Large ([4]; Preemergence, 1000 g ai/ha): 0
- Plant response rating (0 to 100 scale), Morningglory ([5]; Postemergence, 1000 g ai/ha): 0
- Plant response rating (0 to 100 scale), Morningglory ([5]; Preemergence, 1000 g ai/ha): 0
- Plant response rating (0 to 100 scale), Pigweed ([6]; Postemergence, 1000 g ai/ha): 90
- Plant response rating (0 to 100 scale), Pigweed ([6]; Preemergence, 1000 g ai/ha): 90
- Plant response rating (0 to 100 scale), Velvetleaf ([7]; Postemergence, 1000 g ai/ha): 80
- Plant response rating (0 to 100 scale), Velvetleaf ([7]; Preemergence, 1000 g ai/ha): 20
- Plant response rating (0 to 100 scale), Wheat ([8]; Postemergence, 1000 g ai/ha): 0
- Plant response rating (0 to 100 scale), Wheat ([8]; Preemergence, 1000 g ai/ha): 0
- Plant response rating (0 to 100), Johnsongrass ([9]; 62 g ai/ha): 0
- Plant response rating (0 to 100), Johnsongrass ([9]; 125 g ai/ha): 0
- Plant response rating, Johnsongrass [9]: 0
- Plant response rating (0 to 100), Lambsquarters ([10]; 62 g ai/ha): 0
- Plant response rating (0 to 100), Lambsquarters ([10]; 125 g ai/ha): 0
- Plant response rating, Lambsquarters [10]: 20
- Plant response rating (0 to 100), Morningglory ([11]; 62 g ai/ha): 0
- Plant response rating (0 to 100), Morningglory ([11]; 125 g ai/ha): 0
- Plant response rating, Morningglory [11]: 0
- Plant response rating (0 to 100), Velvetleaf ([12]; 62 g ai/ha): 55
- Plant response rating (0 to 100), Velvetleaf ([12]; 125 g ai/ha): 65
- Plant response rating, Velvetleaf [12]: 70
